Assay results: patent publication US5552156A, “Liposomal and micellular stabilization of camptothecin drugs” (Ohio State University, priority 1995, dated 1996)

What was measured:
Format in all cases: physicochemical
[1] = Fluorescence excitation and emission spectra of camptothecin drugs free in solution and bound to liposomes
Text: The camptothecin drugs are intrinsically intensely fluorescent. Fluorescence is associated with the extended conjugation of the quinoline ring system. The liposomes of Examples 1-7 were characterized for the presence of the camptothecin drugs, using excitation and emission spectrography, and fluorescence anisotropy.
(§1) Steady-state fluorescence measurements were obtained on a SLM Model 4800C. spectrofluorometer with a thermostated cuvette compartment. This instrument was interfaced with an IBM PS/2 model 55 SX computer. Excitation and emission spectra were recorded with an excitation resolution of 8 nm and an emission resolution of 4 nm. In all cases spectra were corrected for background fluorescence and scatter from unlabeled lipids or from solvents by subtraction of the spectrum of a blank. Steady-state fluorescence intensity measurements were made in the absence of polarizer. Steady-state anisotropy (a) measurements were determined with the instrument in the "T-format" for simultaneous measurement of two polarized intensities. The alignment of polarizers were checked routinely using a dilute suspension of 0.25 μm polystyrene microspheres from Polysciences, Inc, Warrington, Pa., in water; anisotropy values of >0.99 were obtained. The anisotropy was calculated from a=(Ivv -GlVH)/(Ivv +GIVH), where G-IVH /IHH and the subscripts refer to vertical and horizontal orientations of the excitation and emission polarizers, respectively.
(§2) Anisotropy measurements for camptothecin, camptothecin carboxylate sodium salt, and 10,11-methylenedioxycamptothecin were conducted using exciting light of 370 nm and 420 nm long wave pass filters on each emission channel in order to isolate the fluorescence signal from background scatter and signal. For topotecan a 400 nm excitation wavelength and a 500 nm emission filter were used and for 9-aminocamptothecin a 375 nm excitation and a wavelength 420 nm emission filter were used. For AMC and CMC, a 370 nm excitation wavelength and a 400 nm emission filter were used. For 10-hydroxycamptothecin 375 nm excitation wavelength 500 nm emission filter was used. Emission filters were obtained from Oriel Corp. Stamford, Conn. The combination of exciting light and emission filters allows one to adequately separate the fluorescence from the background signal. The contribution of background fluorescence, together with scattered light, was typically less than 1% of the total intensity. Since the lactone ring of the camptothecin drug undergoes hydrolysis in aqueous medium, all measurements were completed within the shortest possible time, less than 1 minute after mixing the drug stock solution with PBS or the liposomes. In each case, analysis was initiated immediately after mixing the drug stock solution with PBS or with the liposomes. All measurements were performed at 37° C. unless otherwise noted.
The relative fluorescence intensity of 1×10^-6 M of camptothecin free in PBS buffer at 37° C. is shown. The emission spectra of the camptothecin was recorded using exciting light of 370 nm.
An exciting light of 390 nm was used to record the emission spectra of topotecan. A decrease in the emission intensity is observed for topotecan associated with the DMPG liposome.
All spectra were recorded using camptothecin drug concentrations of 2
μM. The DMPC and DMPG concentrations were 0.29 M. Experiments were
conducted in PBS buffer at 37° C.
Also found in Table II is a relative index of the emission intensity levels from these camptothecin drugs in PBS at their respective excitation and emission λMAX.

[2] = Steady-state fluorescence anisotropy in solvents and liposomes; details: pH 3, 37° C.
Protocol: as §1, §2
While the spectral changes provide qualitative evidence that the camptothecin drugs bind the liposome membranes, fluorescence anisotropy titration, offers the most sensitive means for quantitatively assessing the extent of the binding. The fluorescence anisotropy titration was performed according to the method of Burke and Tritton, Biochemistry 24: 1768-1776 (1985).
A steady-state fluorescence anisotropy (a) measurement is related to the rotational rate of the fluorescent molecule through the Perrin Equation: […]
where a0 is the limiting fluorescence anisotropy value, that is, the anisotropy value in the absence of depolarizing rotations, T is the excited-state lifetime, and .phi. is the rotational correlative time of the fluorophore. According to Equation 1, changes in either the T or .phi. values of a fluorescent compound can modulate its steady-state anisotropy.
The limiting fluorescence anisotropy (a0) values were also measured. The maximum values of (a) were obtained by dissolving the camptothecin drugs in the viscous solvent glycerol and cooling the samples to low temperatures. Steady-stated anisotropy (a) values were determined for samples containing 1 μM drug at 37° C.
Where the solvent viscosity is high and temperature is low, depolarizing rotations are at a minimum. By extrapolating these (a) values to -25° C., the limiting anisotropy values (a0) for the camptothecin drugs, were determined. […]

[3] = HPLC assay of lactone ring hydrolysis, free in PBS or associated with liposomes or micelles
Protocol: A high performance liquid chromatography assay was used to determine the rate of hydrolysis of camptothecin and topotecan free in aqueous solution and to compare such rates with the rate of hydrolysis for the same drugs when bound to the DMPG and DMPC liposome membranes. The assay was conducted under near physiological conditions; the pH was 7.4, the temperature was 37° C. and the ionic strength was physiological. A Spectroflow model 980 fluorescence detector coupled to an HP 3392A integrator which acquired and processed the chromatograms, was used. For camptothecin, an Ultrasphere ODS C-18 250 mm long column was used. The mobile phase consisted of 32% acetonitrile, 67% 0.1M acetate buffer, pH 5.5, and 1% 01.M sodium dodecylsulfate at a flow rate of 1 mL/min. The detector was set to 370 nm excitation wavelength and a 418 nm long pass emission filter. A 1 μM solution of camptothecin in PBS was prepared and incubated at 37° C. Immediately after mixing the drug stock solution with PBS and at intervals of 5 min thereafter, 50 μL aliquots were taken out and mixed with 150 μL methanolic internal standard, 9-toluoylamidocamptothecin and either analyzed immediately or kept cold under dry ice. 150 μL of this mixture was diluted with 125 μL water and 200 μL was injected. The ratio of the peak areas corresponding to the intact lactone form of the camptothecin drug and the internal standard at a particular time was normalized to that at the time of mixing and was considered as the concentration of the intact lactone form.
For topotecan the excitation wavelength was 362 nm and the emission was observed through a 470 long wave pass filter. The stationary phase was Waters Nova-Pak C-18 150mm long column. The mobile phase consisted of 500 mL 0.1M KH2 PO4, 550 mL acetonitrile, 4.2 mL triethylamine (distilled over molecular sieves), 4.44 g sodium dioctylsulfosuccinate (DOSS), and 970 ml water. The pH was adjusted to 6.0 with H3 PO4. Internal standard solution contained 50×10^-9 g acridine from Eastman and 20×10^-3 M DOSS in methanol and was always kept cold at ≤-20° C. Next 150 μL or cold internal standard solution was mixed with 50 μL aliquot containing topotecan, centrifuged for 1 minute and the supernatant was either analyzed immediately or stored at -20° C. for analysis at a later time, within 2 hours. Samples were monitored at time points from 0 minutes, that is, immediately following dissolution, up to 72 hours.
The kinetics of lactone ring hydrolysis for free camptothecin, CMC and topotecan are shown in of FIGS. 7a, 7b and 7c. Analysis of the decay profile for camptothecin, CMC and topotecan free in PBS was accomplished using a nonlinear least squares program.

[4] = Overall association constant by fluorescence anisotropy titration, DMPC liposomes; details: DMPC, pH 3.0

## CCC1(O)C(=O)OCc2c1cc1n(c2=O)Cc2cc3c(N)cccc3nc2-1 (centres unmarked) [9-aminocamptothecin]
[1]; DMPC liposomes 0.29 M, pH 7.4, 37° C.
  λMAX emission, DMPC: 442 nm
[1]; DMPG liposomes 0.29 M, pH 7.4, 37° C.
  λMAX emission, DMPG: 436 nm
[1]; free in PBS
  shift of emission maxima upon decrease of pH / protonation: about 25 nm
[1]; free in PBS, pH 7.4
  reduction in emission intensity levels relative to camptothecin: 1000 -fold
[1]; free in PBS, pH 7.4, 37° C.
  λMAX emission, PBS: 439 nm
[1]; in PBS, pH 7.4, at excitation and emission λMAX
  Relative Fluorescence: 0.001
[1]; pH 3.0
  λMAX excitation: 381 nm
[1]; pH 3.0, DMPC
  spectral shift on association with DMPC liposomes, towards the blue region: 13 nm
[1]; pH 3.0, DMPC liposomes
  λMAX emission, DMPC: 477 nm
[1]; pH 3.0, PBS
  Relative Fluorescence: 0.001
[1]; pH 3.0, free in PBS
  λMAX emission, PBS: 464 nm
[1]; pH 7.4, 2 μM drug, PBS, 37° C.
  λMAX excitation: 381 nm
[2]; DMPC liposomes
  steady-state anisotropy (a), DMPC: 0.190
[2]; PBS
  steady-state anisotropy (a), PBS: 0.009
[3]; DMPC and DMPG liposomes
  lactone hydrolysis when associated with liposomes: some hydrolysis occurred at 1 hour
[3]; DMPC liposomes, pH 7.4, 37° C.
  C/L drug DMPC Lip.: 0.45
  t1/2 drug DMPC Lip.: 56 min
[3]; DMPG liposomes, pH 7.4, 37° C.
  C/L drug DMPG Lip.: 0.15
  t1/2 drug DMPG Lip.: 49 min
[3]; DMPG or DMPC liposomes, 5 hours
  lactone ring hydrolysis at 5 hours: ≤ 40%
[3]; final equilibrium, free in PBS, pH 7.4, 37° C.
  carboxylate/lactone ratio (C/L) free drug: 6.0
[3]; lactone hydrolysis, free in PBS, pH 7.4, 37° C.
  t1/2 free drug: 22.5 min
[4]
  overall association constant K, DMPC: 25 M⁻¹
